In patent US20040265803A1, “Genes and their genetic products pertinent to microsatellite instable (msi+) tumours” (priority 2000, published 2004):

System: CD8+ T cells
Experiment: IFN-gamma ELISpot analysis of T cells stimulated with neopeptide-loaded autologous CD40-activated B cells
Type: cell-based, human
Conditions: T cells from HLA-A0201-positive healthy proband, weekly stimulation

FLSASHFLL [peptide #15, HLA-A0201-restricted neopeptide encoded by mutated cMNR]
reactivity (IFN-gamma ELISpot) (day 35): 1123 specific cells/1,000,000 cells

SLYKFSPFPL [peptide #16, HLA-A0201-restricted neopeptide encoded by mutated cMNR]
reactivity (IFN-gamma ELISpot) (day 28): 1760 specific cells/1,000,000 cells

TLSPGWSAV [peptide #21, HLA-A0201-restricted neopeptide encoded by mutated cMNR]
reactivity (IFN-gamma ELISpot) (day 35): 733 specific cells/1,000,000 cells
